Where “and” joins values, the source holds several entries; their conditions need not be identical. Equal values may be shown once. Read-outs that look alike come from different tables or passages of the source. Marks after values point to notes of the source that are not given here.
Legend:
[1] = tested on: PD-1 positive CD4 and CD8 T cells; type: in vivo, human
[2] = tested on: A/H1N1 strain A/New Jersey/8/76; type: in vivo, human; settings: 4 weeks after seasonal influenza vaccination
H3N2 A/Victoria/210/2009 = test: Hemagglutination inhibition titers after influenza vaccination, A/H3N2 vaccine strain; type: in vivo, human; settings: for HI GMT ratio (CV %) A/H3N2: GMT at week 4 post vaccination/GMT at baseline
Description: (§1) The trial was observer-blind because the placebo in the RAD001 0.5 mg daily and 20 mg weekly cohorts differed slightly from the RAD001 tablets in those cohorts. […] The treatment duration for all cohorts was 6 weeks during which time subjects underwent safety evaluations in the clinic every 2 weeks. After subjects had been dosed for 4 weeks, RAD001 steady state levels were measured pre-dose and at one hour post dose. After completing the 6 week course of study drug, subjects were given a 2 week drug free break to reverse any possible RAD001-induced immunosuppression, and then were given a 2012 seasonal influenza vaccination (Agrippal®, Novartis Vaccines and Diagnostics, Siena, Italy) containing the strains H1N1 A/California/07/2009, H3N2 A/Victoria/210/2009, B/Brisbane/60/2008. Four weeks after influenza vaccination, subjects had serum collected for influenza titer measurements. Antibody titers to the 3 influenza vaccine strains as well as to 2 heterologous strains (A/H1N1 strain A/New Jersy/8/76 and A/H3N2 strain A/Victoria/361/11) were measured by standard hemagglutination inhibition assay (Kendal, A P et al. (1982) Concepts and procedures for laboratory-based influenza surveillance. Atlanta: Centers for Disease Control and Prevention B17-B35). Levels of IgG and IgM specific for the A/H1N1/California/07/2009 were measured in serum samples taken before and 4 weeks after influenza vaccination as described previously (Spensieri, F. et al. (2013) Proc. Natl. Acad. Sci. USA 110:14330-14335). Results were expressed as fluorescence intensity.
(§2) The primary analysis of geometric mean titer ratios was done using a normal Bayesian regression model with non-informative priors. This model was fitted to each antibody titer on the log scale. The primary outcome in each model was the Day 84 measurement. The Day 63 measurement was included in the outcome vector. The model fitted using SAS 9.2 proc mixed with the prior statement. The covariance structure of the matrix was considered as unstructured (option type=UN). A flat prior was used. For the secondary analysis of seroconversion rates, logistic regression was used.
(§3) The ability of RAD001 to improve immune function in elderly volunteers was evaluated by measuring the serologic response to the 2012 seasonal influenza vaccine. The hemagglutination inhibition (HI) geometric mean titers (GMT) to each of the 3 influenza vaccine strains at baseline and 4 weeks after influenza vaccination are provided in Table 6. The primary analysis variable was the HI GMT ratio (4 weeks post vaccination/baseline). […] This endpoint was chosen because a 1.2-fold increase in the influenza GMT ratio induced by the MF-59 vaccine adjuvant was associated with a decrease in influenza illness (Iob, A et al. (2005) Epidemiol Infect 133:687-693).
(§4) Rates of seroconversion 4 weeks after influenza vaccination were also evaluated. Seroconversion was defined as the change from a negative pre-vaccination titer (i.e., HI titer <1:10) to post-vaccination HI titer ≥1:40 or at least 4-fold increase from a non-negative (>1:10) pre-vaccination HI titer.

B/Brisbane/60/2008 = test: Hemagglutination inhibition titers after influenza vaccination, B vaccine strain; type: in vivo, human; settings: for HI GMT ratio (CV %) B: GMT at week 4 post vaccination/GMT at baseline
Description: as §1, §2, §3, §4

[3] = tested on: H1N1 A/California/07/2009; test: Hemagglutination inhibition titers after influenza vaccination, A/H1N1 vaccine strain; type: in vivo, human; settings: for HI GMT ratio (CV %) A/H1N1: GMT at week 4 post vaccination/GMT at baseline
Description: as §1, §2, §3, §4

[4] = tested on: influenza vaccine strains; test: Primary endpoint: HI GMT ratio relative to placebo in at least 2 of 3 influenza vaccine strains; type: in vivo, human; settings: ITT population
Description: as §3
Elderly volunteers >=65 years of age were randomized to one of the 3 RAD001 treatment groups (50 subjects per arm) or placebo (20 subjects per arm). Subjects were treated with study drug for 6 weeks, given a 2 week break, and then received influenza (Aggrippal, Novartis) and pneumoccal (Pneumovax 23, Merck), vaccinations. Response to influenza vaccination was assessed by measuring the geometric mean titers (GMTs) by hemagglutination inhibition assay to the 3 influenza strains (H1N1, H3N2 and B influenza subtypes) in the influenza vaccine 4 weeks after vaccination. […] Antibody titers to 7 of the serotypes were measured in our subjects.

[5] = Questionnaires on energy and exercise one year after dosing; type: in vivo, human; settings: 0.5 mg daily dosing cohort
[6] = Baseline (2 weeks prior to influenza vaccination), RAD001 0.5 mg daily
[7] = Baseline (2 weeks prior to influenza vaccination), RAD001 5 mg weekly
[8] = Baseline (2 weeks prior to influenza vaccination), RAD001 20 mg weekly
[9] = Intention to Treat Population, 0.5 mg
[10] = Intention to Treat Population, 5 mg
[11] = Intention to Treat Population, 20 mg
[12] = Subjects with Baseline Titers <=40, 0.5 mg
[13] = Subjects with Baseline Titers <=40, 5 mg
[14] = Subjects with Baseline Titers <=40, 20 mg
[15] = Week 4 after influenza vaccination, RAD001 0.5 mg daily
[16] = Week 4 after influenza vaccination, RAD001 5 mg weekly
[17] = Week 4 after influenza vaccination, RAD001 20 mg weekly

CO[C@H]1C[C@@H]2CC[C@@H](C)[C@@](O)(O2)C(=O)C(=O)N2CCCC[C@H]2C(=O)O[C@H]([C@H](C)C[C@@H]2CC[C@@H](OCCO)[C@H](OC)C2)CC(=O)[C@H](C)/C=C(\C)[C@@H](O)[C@@H](OC)C(=O)[C@H](C)C[C@H](C)/C=C/C=C/C=C/1C [RAD001, (1R,9S,12S,15R,16E,18R,19R,21R,23S,24E,26E,28E,30S,32S,35R)-1,18-dihydroxy-12-{(1R)-2-[(1S,3R,4R)-4-(2-hydroxyethoxy)-3-methoxycyclohexyl]-1-methylethyl}-19,30-dimethoxy-15,17,21,23,29,35-hexamethyl-11,36-dioxa-4-azatricyclo[30.3.1.0^4,9]hexatriaconta-16,24,26,28-tetraene-2,3,10,14,20-pentaone]
decrease in PD-1 positive CD8 T cells compared to placebo cohort ([1]; in vivo): 37.4% and 41.4%
decrease in PD-1 positive CD4 T cells compared to placebo cohort ([1]; week 6, pooled RAD cohort (n=84), p=0.03): 30.2%
decrease in PD-1 positive CD4 T cells compared to placebo cohort ([1]; week 12, pooled RAD cohort, p=0.05): 32.7%
Percentage of subjects who seroconvert to heterologous strain A/H1N1 A/NewJersey/8/76 ([2]; RAD001 5 mg weekly): 16%
Percentage of subjects who seroconvert to heterologous strain A/H1N1 A/NewJersey/8/76 ([2]; RAD001 20 mg weekly): 8%
HI GMT (CV %) A/H3N2 (H3N2 A/Victoria/210/2009; [6]): 106.8 (168.2)
HI GMT (CV %) A/H3N2 (H3N2 A/Victoria/210/2009; [7]): 126.04 (162.6)
HI GMT (CV %) A/H3N2 (H3N2 A/Victoria/210/2009; [8]): 137.1 (211.5)
HI GMT ratio (CV %) A/H3N2 (H3N2 A/Victoria/210/2009; RAD001 0.5 mg daily): 2.1 (152.6)
HI GMT ratio (CV %) A/H3N2 (H3N2 A/Victoria/210/2009; RAD001 5 mg weekly): 2.0 (189.2)
HI GMT ratio (CV %) A/H3N2 (H3N2 A/Victoria/210/2009; RAD001 20 mg weekly): 2.1 (277.3)
Percent of subjects with seroconversion to influenza 4 weeks after vaccination, H3N2 (H3N2 A/Victoria/210/2009; [9]): 27%
Percent of subjects with seroconversion to influenza 4 weeks after vaccination, H3N2 (H3N2 A/Victoria/210/2009; [10]): 24%
Percent of subjects with seroconversion to influenza 4 weeks after vaccination, H3N2 (H3N2 A/Victoria/210/2009; [11]): 25%
Percent of subjects with seroconversion to influenza 4 weeks after vaccination, H3N2 (H3N2 A/Victoria/210/2009; [12]): 64%
Percent of subjects with seroconversion to influenza 4 weeks after vaccination, H3N2 (H3N2 A/Victoria/210/2009; [13]): 53%
Percent of subjects with seroconversion to influenza 4 weeks after vaccination, H3N2 (H3N2 A/Victoria/210/2009; [14]): 71%
HI GMT (CV %) A/H3N2 (H3N2 A/Victoria/210/2009; [15]): 194.4 (129.1)
HI GMT (CV %) A/H3N2 (H3N2 A/Victoria/210/2009; [16]): 223.0 (118.8)
HI GMT (CV %) A/H3N2 (H3N2 A/Victoria/210/2009; [17]): 223.0 (163.6)
HI GMT (CV %) B (B/Brisbane/60/2008; [6]): 44.2 (96.6)
HI GMT (CV %) B (B/Brisbane/60/2008; [7]): 64.8 (87.3)
HI GMT (CV %) B (B/Brisbane/60/2008; [8]): 58.0 (156.0)
HI GMT ratio (CV %) B (B/Brisbane/60/2008; RAD001 0.5 mg daily): 2.5 (111.2)
HI GMT ratio (CV %) B (B/Brisbane/60/2008; RAD001 5 mg weekly): 2.2 (112.8)
HI GMT ratio (CV %) B (B/Brisbane/60/2008; RAD001 20 mg weekly): 2.1 (126.5)
Percent of subjects with seroconversion to influenza 4 weeks after vaccination, B (B/Brisbane/60/2008; [9]): 27%
Percent of subjects with seroconversion to influenza 4 weeks after vaccination, B (B/Brisbane/60/2008; [10]): 22%
Percent of subjects with seroconversion to influenza 4 weeks after vaccination, B (B/Brisbane/60/2008; [11]): 19%
Percent of subjects with seroconversion to influenza 4 weeks after vaccination, B (B/Brisbane/60/2008; [12]): 40* Percent
Percent of subjects with seroconversion to influenza 4 weeks after vaccination, B (B/Brisbane/60/2008; [13]): 33%
Percent of subjects with seroconversion to influenza 4 weeks after vaccination, B (B/Brisbane/60/2008; [14]): 28%
HI GMT (CV %) B (B/Brisbane/60/2008; [15]): 98.4 (94.8)
HI GMT (CV %) B (B/Brisbane/60/2008; [16]): 117.3 (99.9)
HI GMT (CV %) B (B/Brisbane/60/2008; [17]): 99.2 (124.1)
average RAD001 trough level (0.5 mg daily dosing cohort): 0.9 ng/mL
average RAD001 trough level (20 mg weekly dosing cohort): 0.7 ng/mL
trough level of the study regimens relative to oncology and transplant regimens, fold lower (dosing regimens used in the immunization study): 3-20 fold
HI GMT (CV %) A/H1N1 [3, 6]: 102.8 (186.9)
HI GMT (CV %) A/H1N1 [3, 7]: 84.2 (236.4)
HI GMT (CV %) A/H1N1 [3, 8]: 90.1 (188.4)
HI GMT ratio (CV %) A/H1N1 ([3]; RAD001 0.5 mg daily): 2.6 (302.5)
HI GMT ratio (CV %) A/H1N1 ([3]; RAD001 5 mg weekly): 2.5 (214.3)
HI GMT ratio (CV %) A/H1N1 ([3]; RAD001 20 mg weekly): 1.8 (201.5)
Percent of subjects with seroconversion to influenza 4 weeks after vaccination, H1N1 [3, 9]: 27%
Percent of subjects with seroconversion to influenza 4 weeks after vaccination, H1N1 [3, 10]: 27%
Percent of subjects with seroconversion to influenza 4 weeks after vaccination, H1N1 [3, 11]: 17%
Percent of subjects with seroconversion to influenza 4 weeks after vaccination, H1N1 [3, 12]: 42%
Percent of subjects with seroconversion to influenza 4 weeks after vaccination, H1N1 [3, 13]: 45%
Percent of subjects with seroconversion to influenza 4 weeks after vaccination, H1N1 [3, 14]: 36%
HI GMT (CV %) A/H1N1 [3, 15]: 190.2 (236.9)
HI GMT (CV %) A/H1N1 [3, 16]: 198.73(195.6)
HI GMT (CV %) A/H1N1 [3, 17]: 129.7 (175.9)
primary endpoint of the study (HI GMT ratio) ([4]; 0.5 mg daily or 5 mg weekly): met the GMT primary endpoint
primary endpoint of the study (HI GMT ratio) ([4]; 20 mg weekly): but not higher dose (20 mg weekly) cohort met the primary endpoint
energy and exercise ability as compared to placebo [5]: increased energy and exercise ability

From patent US20260078341A1, “TREATMENT OF CANCER USING CHIMERIC ANTIGEN RECEPTOR” (Novartis AG, priority 2014, published 2026)
